# Patent US12324832B2, “Application of heptoglycan-chain-containing oligosaccharide compounds in preparation of vaccine against Helicobacter pylori” (Jiangnan University, priority 2020, dated 2025)
# “Also recorded” adds a separate entry of the source.
# System: serum antibodies generated against the Helicobacter pylori serotype O:6 purified polysaccharide
# Test: Oligosaccharide chip: binding of antiserum antibodies to spotted synthetic oligosaccharides
# Design: species or system rabbit
# Details: spotting concentration 1 mM; for fluorescence intensity on oligosaccharide chip: FIG. 6A/6B, serum diluted 1:50; for recognition and binding by antibodies in the antiserum: oligosaccharide fixed on chip via amino linker, antiserum against H. pylori serotype O6 LPS, anti-rabbit IgG FITC-labeled secondary antibody
# Procedure: FIG. 6A: Detection of the antibody binding activity of the synthetic oligosaccharides in the oligosaccharide chip using an anti-rabbit IgG FITC-labeled secondary antibody. The chip spotting mode is shown as follows: • 1: trisaccharide 1, spotting concentration is 1 mM; • 2: tetrasaccharide 2, spotting concentration is 1 mM; • 3: heptoglycan-chain-containing pentasaccharide 3, spotting concentration is 1 mM; • 4: heptoglycan-chain-containing pentasaccharide 4, spotting concentration is 1 mM; • 5: […] containing only Lewis O-antigen, spotting concentration is 1 mM; • 6: heptoglycan-chain-containing octasaccharide 6, spotting concentration is 1 mM; • 7: tridecasaccharide 7 containing Lewis O-antigen, spotting concentration is 1 mM; and • 8: Helicobacter pylori serotype O6 lipopolysaccharide, spotting concentration is 1 mg/mL.
# FIG. 6B: quantitative measurements of average fluorescence intensity of spots 1-7 in FIG. 6A. Error bars are standard deviations of 4 different points from two different detection areas.
# A chemically synthesized oligosaccharide antigen was fixed onto the chip surface through an amino linker, and the antiserum was incubated with the oligosaccharide chip and then incubated with the secondary antibody.
# Under a chip scanner, the fluorescence of the binding of the oligosaccharide fragment and the antibody can be obtained. In this way, the binding strength of the oligosaccharide fragment to the antibody in the serum can be quantified, the amount of the chemically synthesized oligosaccharide and antiserum can be saved, and the result can be reflected clearly.
# The experimental procedure is as follows: • (1) Activated amino slides were spotted with a biochip spotter. After the completion of the spotting, incubation was carried out overnight at a temperature of 26° C. and a humidity of 55%. • (2) Then the slides were immersed in a solution B (50 nM Na2HPO4, 100 nM ethanolamine in water) at 50° C. for 1 hour. The slides were washed with ultrapure water 3 times, and the residual water was removed by centrifugation. • (3) 3% BSA (w/v) in PBS was used for blocking at 4° C. overnight. The slides were washed with PBST (PBS containing 0.1% tween) once, washed with PBS twice, and centrifugally dried. • (4) The slides were placed into a 16-well incubator (ProPlate). 120 μL of mouse serum sample diluted 1:50 in 1% BSA (w/v) in PBS was added to each well, and incubated in a 37° C. wet box in the dark for 1 hour. The sample was removed, and the incubator was washed with 150 μL of PBST 3 times. • (5) A secondary antibody diluted 1:400 in 1% BSA (w/v) in PBS was added, and incubated in a wet box at 37° C. in the dark for 45 minutes. The secondary antibody solution was removed, and the incubator was washed with 150 μL of PBST 3 times. The 16-well incubator was removed, washed with ultrapure water, and washed with ultrapure water for 15 minutes. The residual water was removed by centrifugation. Scanning was carried out using the chip scanner. Immunogenicity Detection of Helicobacter pylori Serotype O:6 Synthetic Oligosaccharide Fragment:
# NHS slides (SurModics, DN01-0025) were spotted with synthetic oligosaccharide compounds 1 to 7 using a biochip spotter (Jiangsu RayMe Biotechnology Co., Ltd.). After the completion of the spotting, incubation was carried out overnight at a temperature of 26° C. and a humidity of 55%. Then the slides were immersed in a solution B (50 nM Na2HPO4, 100 nM ethanolamine in water) at 50° C. for 1 hour. The slides were washed with ultrapure water 3 times, and the residual water was removed by centrifugation. 3% BSA (w/v) in PBS was used for blocking at 4° C. overnight. The slides were washed with PBST (PBS containing 0.1% tween) once, washed with PBS twice, and centrifugally dried. The slides were placed into a 16-well incubator (ProPlate). 120 μL of mouse serum sample diluted 1:50 in 1% BSA (w/v) in PBS was added to each well, and incubated in a 37° C. wet box in the dark for 1 hour. […]
Compound,fluorescence intensity on oligosaccharide chip,recognition and binding by antibodies in the antiserum
NCCCO[C@H]1OC([C@H](O)CO)[C@@H](O)[C@H](O)C1O[C@H]1OC([C@H](O)CO)[C@@H](O)[C@H](O)C1O[C@H]1OC([C@@H](CO)O[C@H]2OC([C@H](O)CO)[C@@H](O)[C@H](O[C@H]3OC([C@H](O)CO)[C@@H](O)C(O)C3O)C2O)[C@@H](O)[C@H](O)C1O (stereo partly drawn) [Compound 3],higher fluorescence intensity,well recognized; also recorded: obvious and strong recognition and binding
NCCCO[C@H]1OC([C@H](O)CO)[C@@H](O)[C@H](O[C@H]2O[C@@H]([C@H](O)CO)[C@@H](O)C(O[C@H]3OC([C@H](O)CO)[C@@H](O)[C@H](O[C@H]4O[C@@H]([C@H](O)CO)[C@@H](O)C(O[C@H]5OC([C@H](O)CO)[C@@H](O)[C@H](O)C5O)C4O)C3O)C2O)C1O (stereo partly drawn) [Compound 4],higher fluorescence intensity,well recognized; also recorded: obvious and strong recognition and binding
NCCCO[C@H]1OC([C@H](O)CO)[C@@H](O)[C@H](O)C1O[C@H]1OC([C@H](O)CO)[C@@H](O)[C@H](O)C1O[C@H]1OC([C@@H](CO)O[C@H]2OC([C@H](O)CO)[C@@H](O)[C@H](O[C@H]3O[C@@H]([C@H](O)CO)[C@@H](O)C(O[C@H]4OC([C@H](O)CO)[C@@H](O)[C@H](O[C@H]5O[C@@H]([C@H](O)CO)[C@@H](O)C(O[C@H]6OC([C@H](O)CO)[C@@H](O)[C@H](O)C6O)C5O)C4O)C3O)C2O)[C@@H](O)[C@H](O)C1O (stereo partly drawn) [Compound 6],higher fluorescence intensity,well recognized; also recorded: obvious and strong recognition and binding
